Laboratory results as given in patent publication US11491146B2, “Therapeutic methods and combinations” (priority 2017, dated 2022).
Values joined by “and” are separate entries in the source; they are usually repeats but may differ in a detail not shown here. Equal values may be shown once. Read-outs that look alike come from different tables or passages of the source.

Key:
VIM2 expressing E. coli = assay type: cell-based
Experimental: (§1) The cells were cultured on 0.8 g/100 ml nutrient agar plate at pH 7.0 and 37° C. The bacterial growth medium was diluted in nutrient broth (NB) to a concentration absorbance of 1.5 at OD600 nm and incubated overnight in 10 ml capped culture tubes with shaking. An overnight culture of the bacterial strain was sub-cultured to an optical density of 0.06 at OD600 nm into the NB medium and was then seeded at max 200 μl into the wells of a 96 well microtiter plate. Samples were then incubated at 37° C. and shaken at 200 rpm for 18 h.

E. coli = experiment: Cell viability assay, wild type E. coli growth; assay type: cell-based; conditions: for relative percentage growth compared to untreated cells: E. coli
Experimental: as §1

VIM-2 [1] = molecular target: T1, VIM-2 (Pseudomonas aeruginosa, UniProt Q9K2N0); experiment: Single dose enzymatic inhibition assay against VIM2 (nitrocefin hydrolysis); assay type: biochemical, P. aeruginosa; conditions: for VIM2 inhibition in words: single dose, 50 μM
Experimental: (§2) For our biochemical assay, the blavmugene, from a clinical strain of P. aeruginosa, was expressed using the pET24a (+) vector [20]. The pET24a-VIM-2 plasmid was transformed into competent BL21 (DE3) E. coli cells. The cells were plated onto an LB-agar plate with kanamycin (25 μg/mL) and incubated overnight at 37° C. A single colony was used to inoculate 50 mL of LB, containing 25 μg/mL kanamycin, and the culture was shaken overnight at 37° C. From the overnight culture, 10 mL were transferred to 4×1 L LB medium containing 25 μg/mL kanamycin. The cultures were grown at 37° C. until the optical density (OD600 nm) reached 0.6-0.8, at which point protein production was induced with IPTG (0.5 mM) and ZnC12 (100 μM). The temperature was reduced to 20° C., and the cells were shaken for an additional 18 h. The cultures were harvested by centrifugation (8K×g) for 10 min at 4° C. The resulting pellets were re-suspended with 25 mL of 50 mM HEPES, pH 7.5, containing 500 mM NaCl (buffer B). The cells were lysed with three passes through a French Press. The lysate was centrifuged (15 Kxg) for 30 min at 4° C. The supernatant was dialyzed against 2 L of 50 mM HEPES, pH 7.5 (buffer A), for 4 h. Buffer A was used to equilibrate a 25 mL Q-Sepharose column using an FPLC. The sample was loaded onto the column, and proteins were eluted with a linear gradient 0-500 mM NaCl with buffer B. Fractions containing VIM2, determined by SDS-PAGE, were pooled and concentrated to 2-3 mL in an Amicon ultraconcentrator equipped YM-10 membrane. Further purification was conducted with a Sephacryl S-200 gel filtration column using 50 mM HEPES, pH 7.5, containing 150 mM NaCl.

VIM-2 [2] = molecular target: T1, VIM-2; experiment: Dose response enzymatic inhibition assay and inhibition constant against VIM2; assay type: biochemical, P. aeruginosa; conditions: for Ligand efficiency (LE): LE = −1.38 log (Ki)/N, N = number of heavy atoms
Experimental: as §2
The relative change in absorbance was evaluated as percentage inhibition and the IC50 was determined by fitting the data to a sigmoidal dose-response curve. The enzyme inhibition constant (Ki) was derived from initial-velocity measurements by nonlinear regression using competitive-inhibition enzyme kinetics using Graphpad Prism 6.

[3] = Cytotoxicity by MTT cell proliferation assay in HEK293; conditions: human, HEK293 cells
Experimental: (§3) Human embryonic kidney cell line (HEK293) was grown in DMEM (Dulbecco's modifications of eagle's medium with L-glutamine & 4.5 G/L glucose) supplemented with fetal bovine serum 100 units/ml of penicillin G and 0.1 mg/ml of streptomycin sulfate in a humidified atmosphere of a 5% CO2 at 37° C.
(§4) Cell proliferations were measured by counting viable cells by using the 3(4,5dimethylthiazol-2-yl)-2,5-diphenyltetrazolium bromide (MTT) (Sigma-Aldrich, St. Louis, Mo.) colorimetric dye-reduction assay. […] After 72 hrs, 10 μl of MTT (5 mg/ml) dye was added to each well and the plates were incubated for 4 hours at 37° C. in 5% CO2 incubator. After centrifuge with 1,500 rpm/10 mins, the supernatant was removed and 200 μl of dimethyl sulfoxide (DMSO) was added and the plates were gently shaken to solubilize the formed formazan for 30 min. The absorbance was measured using a micro-plate reader at wave length 590 nm. The CC50 were obtained by fitting the data to a sigmoidal dose-response equation using Graphpad Prism 6.

VIM-2 expressing E. coli = experiment: EC50* for restoring amoxicillin growth inhibition in VIM-2 expressing E. coli; assay type: cell-based; conditions: in the presence of 50 μM amoxicillin
Experimental: as §1
The bacterial culture was prepared as described above. […] The mixing of the bacterial culture plate were then incubated in a 37° C. […] shaken incubator at 200 rpm for 18 h before measuring their optical density at 600 nm.

HEK293 cells [4] = test system: HEK293 cells
Experimental: as §3, §4

HEK293 cells [5] = experiment: Cytotoxicity by MTT cell proliferation assay in HEK293; conditions: HEK293 CC50 ratio
Experimental: as §3, §4

HDACs = conditions: earlier study; cited from earlier work
VIM-2 [6] = molecular target: T1, VIM-2; conditions: literature value; read-out: IC50 in parenthesis reported from ref. 3; cited from earlier work
[7] = 50 μM compound, 5 nM VIM-2, 10 μM nitrocefin, 30 mins
[8] = 5 nM VIM-2, 10 μM nitrocefin, read-out: IC50
[9] = competitive-inhibition fit, nitrocefin substrate, read-out: Ki

Compound | relative percentage growth compared to untreated cells (VIM2 expressing E. coli; Amox(+), 50 μM amoxicillin) [%] | relative percentage growth compared to untreated cells (E. coli; Amox(+), 50 μM amoxicillin) [%] | % Inhibition at 50 μM (VIM-2 [1]; [7]) [%] | inhibition at 50 µM (VIM-2 [1]; [7]) [%] | relative percentage growth compared to untreated cells (VIM2 expressing E. coli; Amox(−)) [%] | relative percentage growth compared to untreated cells (E. coli; Amox(−)) [%] | VIM2 inhibition in words (VIM-2 [1]) | further results
CC1(C)S[C@@H]2[C@H](NC(=O)[C@H](N)c3ccc(O)cc3)C(=O)N2[C@H]1C(=O)O [Amox, amoxicillin] | 77 | 3.6 |  |  |  |  |  | growth inhibition by amoxicillin alone (E. coli; wild type E. coli, 50 μM): over 96%
O=C(O)[C@H]1/C(=C/CO)O[C@@H]2CC(=O)N21 [Clavulanate] | 57 | 2.9 | 15 | ≤ 25 | 93 | 86 |  | 
O=C(NC(C(=O)O)c1ccccc1)c1ccc(=O)n(O)c1 (stereo not drawn) [Compound 1, 2-(1-Hydroxy-6-oxo-1,6-dihydropyridine-3-carboxamido)-2-phenylacetic acid] |  |  |  | 12 |  |  | Poor inhibition | 
On1ccccc1=S [Compound 2b, 1-Hydroxypyridine-2-thione] |  |  |  |  |  |  |  | inhibition at 50 µM (VIM-2 [1]): 93%; growth inhibition activity on its own (VIM2 expressing E. coli; compound alone): over 89%; IC50 (VIM-2 [2]): 908 nM; Ki (VIM-2 [2]): 217 nM; growth inhibition activity on its own (E. coli; wild type E. coli, compound alone): over 89%; CC50 at 72 h [3]: 14 nM
O=C(O)c1cccc(=S)n1O [Compound 3, 1-Hydroxypyridine-2(1H)-thiones-6-carboxylic acid] | 3.2 | 3.6 | 98 |  | 61 | 77 |  | EC50 (VIM-2 expressing E. coli): 100 nM and 110 nM; antibacterial activity on their own, in words (VIM2 expressing E. coli): moderate antibacterial activity; synergistic growth inhibition with amoxicillin (VIM2 expressing E. coli): over 90%; CC50 (HEK293 cells [4]): 97000 nM; IC50 (VIM-2 [2]; [8]): 270 nM; Ligand efficiency (LE) (VIM-2 [2]): 0.99; Ki (VIM-2 [2]; [9]): 13 nM; IC50 (VIM-2 [2]; read-out: IC50): 270 nM; Ki (VIM-2 [2]; read-out: Ki): 13 nM; antibacterial activity on their own, in words (E. coli; wild type E. coli): moderate antibacterial activity; fold change in cytotoxicity from parent compound 2 (HEK293 cells [5]): 6900 fold; range selectivity among all eleven HDACs (HDACs): ~5000 fold
O=C(N[C@@H](C(=O)O)c1ccccc1)c1cccc(=S)n1O [Compound 5] |  |  | 34 |  |  |  | Moderate inhibitory activities | fold loss of Ki relative to compound 3 (VIM-2 [2]): 576 fold; IC50 (VIM-2 [2]; [8]): 67900 nM; Ligand efficiency (LE) (VIM-2 [2]): 0.34; Ki (VIM-2 [2]; [9]): 7500 nM
C[C@H](CS)C(=O)N1CCC[C@H]1C(=O)O [L-Captopril] |  |  | 98 |  |  |  |  | antibacterial activity on their own, in words (VIM2 expressing E. coli): moderate antibacterial activity; synergistic growth inhibition with amoxicillin (VIM2 expressing E. coli): over 90%; antibacterial activity on their own, in words (E. coli; wild type E. coli): moderate antibacterial activity; IC50 (VIM-2 [6]): 4400 nM
O=C(CCCCCCC(=O)Nc1ccccc1)NO [SAHA] | 60 | 3.6 | 29 |  | 79 | 83 | Poor inhibition | 
C[C@]1(Cn2ccnn2)[C@H](C(=O)O)N2C(=O)C[C@H]2S1(=O)=O [Tazobactam] |  |  | 25 | ≤ 25 |  |  |  | 
Zinc pyrithione [Compound 2a] |  |  | 15 |  |  |  |  | 
